# Measurements taken from article PMC9519442, “Genotype–phenotype correlations in WHIM syndrome: a systematic characterization of CXCR4^WHIM variants” (Genes and Immunity, 2022).
# What was measured:
# [1] = target: T1, R334X/R334X CXCR4 (RX/RX Jurkat cells) (Homo sapiens, UniProt P61073); assay: ERK activation assay (phosphoflow p-T202/Y204 ERK), Jurkat cells; format: cell-based; settings: 10 nM CXCL12 for 5 min
# T1 construct: a cellular model of homozygous and heterozygous R334X CXCR4 in an endogenous locus; host or cells: Jurkat (E6-1, ATCC), CRISPR-Cas9 clones A3 and B5 (RX/RX)
# Description: (§1) Stable K562 clones expressing CXCR4 or Jurkat cells were seeded in starvation medium in 96-well plates overnight. After treatment, the cells were fixed with fixation solution (eBioscience, Thermo Fisher Scientific, Waltham, Massachusetts, USA) for 10 min at room temperature, then permeabilized for 5 min with ice-cold methanol on ice followed by a washing step with wash/permeabilization solution (eBioscience, Thermo Fisher Scientific, Waltham, Massachusetts, USA). Cells were then stained with Alexa Fluor 647 Mouse Anti-ERK1/2 (Product code 612593, pT202/pY204, 1/10 dilution, BD Biosciences) and Alexa Fluor 488 Mouse anti-Akt (Product code 560404, pS473, 1/10 dilution, BD Biosciences) for 1 h at room temperature in the dark. Cells were then washed 2 times in wash/permeabilization solution and resuspended in flow buffer (HBSS with Ca^2+ and Mg^2+ + 0.1% BSA + 20 mM HEPES pH 7.4). Samples were measured via flow cytometry (CytoFLEX Flow Cytometer) and analyzed in FCS Express software. After gating cells based on the FCS/SSC, MFI of the respective staining was exported for further analysis.
# [2] = target: T2, R334X/WT CXCR4 (RX/WT Jurkat cells) (Homo sapiens, UniProt P61073); assay: as above; format: cell-based; settings: 10 nM CXCL12 for 5 min
# T2 construct: cells endogenously expressing WT, R334X/WT or R334X/R334X CXCR4 at similar levels; endogenous in cells; host or cells: Jurkat E6-1 clone B2 (CRISPR-Cas9 edited, made at Applied StemCell)
# Description: as §1
# CXCR4 S339C fs*4 = target: T3, CXCR4 S339C fs*4 (Homo sapiens, UniProt P61073); assay: Ca2+ mobilization assay, K562 cells with stable CXCR4 expression; format: cell-based; settings: K562, read-out: Emax (% inhibition) of mavorixafor, Ca2+ mobilization
# T3 construct: expressed in transfected cells; host or cells: K562
# Description: (§2) Stable K562 clones expressing CXCR4 (1 × 10^5 cells/well) were seeded in black 96-well plates with transparent bottom coated with poly-L-lysine (BioCoat®, Corning) and serum-starved for 24 h. Medium was removed and cells were loaded with 100 µl of fluo-4 AM (3 µM, Invitrogen) dye solution for 45 min at 37 °C. Dye solution was prepared by diluting fluo-4 powder in DMSO + 10% Pluronic F127 (Thermo Fisher Scientific, Waltham, Massachusetts, USA) to 3 mM and then preparing the final dilution in assay buffer (HBSS with Ca^2+ and Mg^2+, 20 mM HEPES, 0.375 g/l NaHCO3, 0.1% BSA + 0.77 g/L probenecid [Thermo Fisher Scientific]). Subsequently, 100 µl of assay buffer alone or assay buffer with compound dilutions was added and the plates were equilibrated in the plate reader for an additional 20 min at 37 °C. Jurkat cells (3 × 10^5 cells/well) were incubated with the Screen Quest Calbryte-520 Probenecid-Free and Wash-Free Calcium Assay Kit (AAT Bioquest, Sunnyvale, California, USA) according to manufacturer’s instructions. […] Raw traces were analyzed in SoftMax Pro 7 Software (Molecular Devices). The arbitrary units were calculated as the difference between maximal and minimal signal after treatment injection, normalized to the baseline signal before injection. Maximal effect (Emax) and half-maximal effective and inhibitory concentrations (EC50 and IC50, respectively) were calculated in Prism (GraphPad Software, San Diego, California, USA).
# CXCR4 E343X = target: T4, CXCR4 E343X (Homo sapiens, UniProt P61073); assay: as above; format: cell-based; settings: K562, read-out: Emax (% inhibition) of mavorixafor, Ca2+ mobilization
# T4 construct: expressed in transfected cells; host or cells: K562
# Description: as §2
# CXCR4 S324V fs*20 = target: T5, CXCR4 S324V fs*20 (Homo sapiens, UniProt P61073); assay: as above; format: cell-based; settings: K562, read-out: Emax (% inhibition) of mavorixafor, Ca2+ mobilization
# T5 construct: expressed in transfected cells; host or cells: K562
# Description: as §2
# CXCR4 L329Q fs*13 = target: T6, CXCR4 L329Q fs*13 (Homo sapiens, UniProt P61073); assay: as above; format: cell-based; settings: K562, read-out: Emax (% inhibition) of mavorixafor, Ca2+ mobilization
# T6 construct: expressed in transfected cells; host or cells: K562
# Description: as §2
# CXCR4 S319C fs*24 = target: T7, CXCR4 S319C fs*24 (Homo sapiens, UniProt P61073); assay: as above; format: cell-based; settings: K562, read-out: Emax (% inhibition) of mavorixafor, Ca2+ mobilization
# T7 construct: expressed in transfected cells; host or cells: K562
# Description: as §2
# CXCR4 V320E fs*23 = target: T8, CXCR4 V320E fs*23 (Homo sapiens, UniProt P61073); assay: as above; format: cell-based; settings: K562, read-out: Emax (% inhibition) of mavorixafor, Ca2+ mobilization
# T8 construct: expressed in transfected cells; host or cells: K562
# Description: as §2
# CXCR4 T318P fs*3 = target: T9, CXCR4 T318P fs*3 (Homo sapiens, UniProt P61073); assay: as above; format: cell-based; settings: K562, read-out: Emax (% inhibition) of mavorixafor, Ca2+ mobilization
# T9 construct: expressed in transfected cells; host or cells: K562
# Description: as §2
# WT CXCR4 = target: T10, WT CXCR4 (Homo sapiens, UniProt P61073); assay: as above; format: cell-based; settings: K562, read-out: Emax (% inhibition) of mavorixafor, Ca2+ mobilization
# T10 construct: cloned into pcDNA3.1(Hygro+) via NheI/EcoRV to give pcDNA3.1_CXCR4; expressed in transfected cells; host or cells: K562
# Description: as §2
# CXCR4 S341P fs*25 = target: T11, CXCR4 S341P fs*25 (Homo sapiens, UniProt P61073); assay: as above; format: cell-based; settings: K562, read-out: Emax (% inhibition) of mavorixafor, Ca2+ mobilization
# T11 construct: expressed in transfected cells; host or cells: K562
# Description: as §2
# CXCR4 S339F fs*6 = target: T12, CXCR4 S339F fs*6 (Homo sapiens, UniProt P61073); assay: as above; format: cell-based; settings: K562, read-out: Emax (% inhibition) of mavorixafor, Ca2+ mobilization
# T12 construct: expressed in transfected cells; host or cells: K562
# Description: as §2
# CXCR4 E343K = target: T13, CXCR4 E343K (Homo sapiens, UniProt P61073, E343K); assay: as above; format: cell-based; settings: K562, read-out: Emax (% inhibition) of mavorixafor, Ca2+ mobilization
# T13 construct: expressed in transfected cells; host or cells: K562
# Description: as §2
# CXCR4 S338X = target: T14, CXCR4 S338X (Homo sapiens, UniProt P61073); assay: as above; format: cell-based; settings: K562, read-out: Emax (% inhibition) of mavorixafor, Ca2+ mobilization
# T14 construct: expressed in transfected cells; host or cells: K562
# Description: as §2
# CXCR4 R334X = target: T15, CXCR4 R334X (Homo sapiens, UniProt P61073); assay: as above; format: cell-based; settings: K562, read-out: Emax (% inhibition) of mavorixafor, Ca2+ mobilization
# T15 construct: expressed in transfected cells; host or cells: K562
# Description: as §2
# CXCR4 G336X = target: T16, CXCR4 G336X (Homo sapiens, UniProt P61073); assay: as above; format: cell-based; settings: K562, read-out: Emax (% inhibition) of mavorixafor, Ca2+ mobilization
# T16 construct: expressed in transfected cells; host or cells: K562
# Description: as §2
# [3] = target: CXCR4 (WT/WT, RX/WT, RX/RX) (Homo sapiens, UniProt P61073); assay: Ligand binding inhibition assay (AF647-CXCL12), Jurkat cells, across all cell lines
# Description: Jurkat cells were washed once with assay buffer (HBSS + 20 mM HEPES buffer +0.2% BSA, pH 7.4) and then incubated for 15 min at room temperature with test compound diluted in assay buffer at dose-dependent concentrations. […] The cells were incubated for 30 min at room temperature. Thereafter, the cells were washed twice in assay buffer, fixed with 1% paraformaldehyde in PBS, and analyzed by flow cytometry (Cytoflex). […] The percentage of inhibition was calculated according to the formula: [1-((MFI-MFINC)/(MFIPC-MFINC))]*100 where MFI is the mean fluorescence intensity of cells in the presence of an inhibitor, MFINC is mean fluorescence intensity of cells in the absence of the ligand and MFIPC is mean fluorescence intensity of cells in the presence of the ligand alone.
# [4] = tested on: WT CXCR4 and CXCR4^WHIM variants; assay: ERK activation assay (phosphoflow p-T202/Y204 ERK), K562 cells with stable CXCR4 expression; format: cell-based, human; settings: 40 nM, 200 nM or 1 µM mavorixafor, 10 nM CXCL12 for 5 min
# Description: as §1
# [5] = tested on: WT CXCR4 and CXCR4^WHIM variants; assay: AKT activation assay (phosphoflow p-S473 AKT), K562 cells with stable CXCR4 expression; format: cell-based, human; settings: 40 nM, 200 nM or 1 µM mavorixafor, 10 nM CXCL12 for 5 min
# Description: as §1
# all CXCR4^WHIM variants = all CXCR4^WHIM variants (Homo sapiens, UniProt P61073); assay: Ca2+ mobilization assay, K562 cells, pooled over variants; format: cell-based; settings: K562, read-out: Emax of mavorixafor, Ca2+ mobilization, range over variants
# Description: as §2, with “°C.” for “°C. Jurkat cells (3 × 10^5 cells/well) were incubated with the Screen Quest Calbryte-520 Probenecid-Free and Wash-Free Calcium Assay Kit (AAT Bioquest, Sunnyvale, California, USA) according to manufacturer’s instructions.”
# [6] = target: CXCR4 (WT/WT, RX/WT, RX/RX Jurkat cells) (Homo sapiens, UniProt P61073); assay: ERK activation assay (phosphoflow), all Jurkat cell lines tested; format: cell-based; settings: 40 nM, 200 nM or 1 µM mavorixafor, 10 nM CXCL12 for 5 min
# Description: as §1
# T9 sequence (P61073 with tags, fused parts or gaps, stated change not applied): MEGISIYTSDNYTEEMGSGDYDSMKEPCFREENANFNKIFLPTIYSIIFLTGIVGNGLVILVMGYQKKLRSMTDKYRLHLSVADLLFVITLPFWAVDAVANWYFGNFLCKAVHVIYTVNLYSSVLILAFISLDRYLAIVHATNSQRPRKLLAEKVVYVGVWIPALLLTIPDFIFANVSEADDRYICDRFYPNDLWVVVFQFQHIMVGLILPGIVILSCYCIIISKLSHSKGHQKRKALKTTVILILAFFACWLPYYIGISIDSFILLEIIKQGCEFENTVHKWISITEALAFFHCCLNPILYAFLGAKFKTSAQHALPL
# T6 sequence (P61073 with tags, fused parts or gaps, stated change not applied): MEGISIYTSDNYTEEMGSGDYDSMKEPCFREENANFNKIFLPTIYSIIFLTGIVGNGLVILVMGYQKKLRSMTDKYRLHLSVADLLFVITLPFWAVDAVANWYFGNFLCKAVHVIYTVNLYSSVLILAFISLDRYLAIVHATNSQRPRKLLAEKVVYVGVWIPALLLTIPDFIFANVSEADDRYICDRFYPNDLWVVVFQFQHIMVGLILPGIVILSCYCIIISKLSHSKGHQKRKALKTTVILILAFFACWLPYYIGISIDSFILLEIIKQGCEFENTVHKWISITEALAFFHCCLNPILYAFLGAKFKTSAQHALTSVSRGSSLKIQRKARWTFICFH
# T12 sequence (P61073 with tags, fused parts or gaps, stated change not applied): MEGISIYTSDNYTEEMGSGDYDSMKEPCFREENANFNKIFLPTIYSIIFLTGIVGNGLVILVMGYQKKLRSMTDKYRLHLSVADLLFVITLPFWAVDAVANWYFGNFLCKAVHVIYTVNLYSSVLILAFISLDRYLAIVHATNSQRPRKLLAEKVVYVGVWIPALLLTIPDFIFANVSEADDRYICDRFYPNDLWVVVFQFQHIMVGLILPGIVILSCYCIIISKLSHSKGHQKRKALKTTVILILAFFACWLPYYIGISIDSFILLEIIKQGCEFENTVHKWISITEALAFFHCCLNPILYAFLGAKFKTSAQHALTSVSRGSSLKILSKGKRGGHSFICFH
# T13 sequence (P61073 whole entry E343K): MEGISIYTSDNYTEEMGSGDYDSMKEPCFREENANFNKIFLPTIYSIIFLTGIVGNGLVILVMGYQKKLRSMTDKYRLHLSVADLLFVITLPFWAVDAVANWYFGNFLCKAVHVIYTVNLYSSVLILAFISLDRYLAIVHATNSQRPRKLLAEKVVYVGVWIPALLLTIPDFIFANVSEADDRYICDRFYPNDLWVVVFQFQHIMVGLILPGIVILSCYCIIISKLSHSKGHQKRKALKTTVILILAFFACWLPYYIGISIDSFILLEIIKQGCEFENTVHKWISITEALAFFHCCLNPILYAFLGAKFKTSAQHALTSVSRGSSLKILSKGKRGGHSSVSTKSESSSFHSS
# T14 sequence (P61073 1-337 limits assumed): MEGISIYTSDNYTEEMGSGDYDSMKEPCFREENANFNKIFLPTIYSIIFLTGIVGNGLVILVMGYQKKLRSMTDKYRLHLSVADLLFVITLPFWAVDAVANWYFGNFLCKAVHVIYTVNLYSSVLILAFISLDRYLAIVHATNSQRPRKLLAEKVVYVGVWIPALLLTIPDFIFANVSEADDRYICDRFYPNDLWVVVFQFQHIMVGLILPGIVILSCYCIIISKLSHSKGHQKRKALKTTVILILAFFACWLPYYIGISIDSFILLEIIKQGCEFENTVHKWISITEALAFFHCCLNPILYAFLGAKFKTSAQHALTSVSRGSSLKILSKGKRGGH
# T16 sequence (P61073 1-335 limits assumed): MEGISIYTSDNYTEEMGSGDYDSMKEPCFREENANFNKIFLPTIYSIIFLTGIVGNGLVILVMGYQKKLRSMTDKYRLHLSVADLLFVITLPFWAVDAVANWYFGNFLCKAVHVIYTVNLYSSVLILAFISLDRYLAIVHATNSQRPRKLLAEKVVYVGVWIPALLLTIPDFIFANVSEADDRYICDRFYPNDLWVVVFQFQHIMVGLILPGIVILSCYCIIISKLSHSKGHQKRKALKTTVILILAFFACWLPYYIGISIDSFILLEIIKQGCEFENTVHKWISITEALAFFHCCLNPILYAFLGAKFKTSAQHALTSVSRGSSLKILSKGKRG
# T11 sequence (P61073 with tags, fused parts or gaps, stated change not applied): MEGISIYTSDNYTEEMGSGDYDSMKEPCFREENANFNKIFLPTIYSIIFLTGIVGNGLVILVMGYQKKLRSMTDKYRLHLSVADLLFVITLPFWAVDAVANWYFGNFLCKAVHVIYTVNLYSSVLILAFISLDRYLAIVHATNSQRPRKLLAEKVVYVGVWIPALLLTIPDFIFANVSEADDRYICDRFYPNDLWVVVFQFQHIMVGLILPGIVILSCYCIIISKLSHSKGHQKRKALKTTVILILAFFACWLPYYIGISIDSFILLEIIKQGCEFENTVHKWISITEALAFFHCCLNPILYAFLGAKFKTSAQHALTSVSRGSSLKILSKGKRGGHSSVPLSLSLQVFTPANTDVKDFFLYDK
# T4 sequence (P61073 1-342 limits assumed): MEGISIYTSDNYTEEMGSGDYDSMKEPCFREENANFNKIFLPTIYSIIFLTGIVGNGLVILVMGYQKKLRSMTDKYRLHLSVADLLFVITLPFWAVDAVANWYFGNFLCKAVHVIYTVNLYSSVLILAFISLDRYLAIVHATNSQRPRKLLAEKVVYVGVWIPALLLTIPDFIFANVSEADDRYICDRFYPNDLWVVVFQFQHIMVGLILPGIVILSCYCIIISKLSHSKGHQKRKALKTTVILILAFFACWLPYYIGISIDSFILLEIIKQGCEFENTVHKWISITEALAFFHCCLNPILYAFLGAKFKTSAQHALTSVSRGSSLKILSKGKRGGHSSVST
# T7 sequence (P61073 with tags, fused parts or gaps, stated change not applied): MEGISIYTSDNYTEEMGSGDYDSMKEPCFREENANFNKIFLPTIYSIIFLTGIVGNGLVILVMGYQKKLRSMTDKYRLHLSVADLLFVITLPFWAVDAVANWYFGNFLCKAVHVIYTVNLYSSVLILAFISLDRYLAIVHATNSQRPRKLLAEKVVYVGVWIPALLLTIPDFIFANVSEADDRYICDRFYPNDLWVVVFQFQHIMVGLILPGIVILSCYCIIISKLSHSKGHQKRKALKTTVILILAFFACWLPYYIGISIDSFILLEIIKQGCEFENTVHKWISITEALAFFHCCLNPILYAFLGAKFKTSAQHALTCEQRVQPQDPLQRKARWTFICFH
# T5 sequence (P61073 with tags, fused parts or gaps, stated change not applied): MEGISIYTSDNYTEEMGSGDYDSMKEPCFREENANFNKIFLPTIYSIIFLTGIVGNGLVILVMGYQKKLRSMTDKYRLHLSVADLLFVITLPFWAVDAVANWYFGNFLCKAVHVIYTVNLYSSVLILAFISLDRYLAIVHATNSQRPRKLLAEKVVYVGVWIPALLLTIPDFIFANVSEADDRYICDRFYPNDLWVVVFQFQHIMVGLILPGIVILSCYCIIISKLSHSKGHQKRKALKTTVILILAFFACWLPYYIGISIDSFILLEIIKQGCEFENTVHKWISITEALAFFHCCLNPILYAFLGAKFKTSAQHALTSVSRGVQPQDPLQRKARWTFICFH
# T8 sequence (P61073 with tags, fused parts or gaps, stated change not applied): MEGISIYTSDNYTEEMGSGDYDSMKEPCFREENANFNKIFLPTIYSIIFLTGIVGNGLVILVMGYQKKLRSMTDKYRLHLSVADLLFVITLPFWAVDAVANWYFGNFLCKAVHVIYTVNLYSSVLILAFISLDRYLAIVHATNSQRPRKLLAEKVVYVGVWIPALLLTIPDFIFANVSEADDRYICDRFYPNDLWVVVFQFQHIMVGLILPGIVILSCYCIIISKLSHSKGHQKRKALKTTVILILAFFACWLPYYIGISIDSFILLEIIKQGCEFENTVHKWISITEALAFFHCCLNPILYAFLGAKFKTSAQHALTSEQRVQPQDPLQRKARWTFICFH
# Chain of CXCR4 (WT/WT, RX/WT, RX/RX) (P61073 1-333 limits assumed): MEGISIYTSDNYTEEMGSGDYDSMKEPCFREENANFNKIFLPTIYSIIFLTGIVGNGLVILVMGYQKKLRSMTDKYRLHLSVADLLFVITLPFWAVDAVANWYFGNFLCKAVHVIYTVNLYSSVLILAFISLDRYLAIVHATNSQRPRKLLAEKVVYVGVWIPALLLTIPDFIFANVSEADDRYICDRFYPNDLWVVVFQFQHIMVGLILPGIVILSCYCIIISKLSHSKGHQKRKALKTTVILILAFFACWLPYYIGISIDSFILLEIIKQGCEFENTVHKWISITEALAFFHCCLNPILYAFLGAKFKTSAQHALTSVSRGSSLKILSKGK
# T2 sequence (P61073 1-333 limits assumed): as above
# T2 sequence (P61073 whole entry): as the sequence (P61073 whole entry E343K) above, with K343E counted along it
# T15 sequence (P61073 1-333 limits assumed): as the sequence (P61073 1-333 limits assumed) above
# Chain of CXCR4 (WT/WT, RX/WT, RX/RX Jurkat cells) (P61073 1-333 limits assumed): as above
# T1 sequence (P61073 1-333 limits assumed): as above
# T3 sequence (P61073 with tags, fused parts or gaps, stated change not applied): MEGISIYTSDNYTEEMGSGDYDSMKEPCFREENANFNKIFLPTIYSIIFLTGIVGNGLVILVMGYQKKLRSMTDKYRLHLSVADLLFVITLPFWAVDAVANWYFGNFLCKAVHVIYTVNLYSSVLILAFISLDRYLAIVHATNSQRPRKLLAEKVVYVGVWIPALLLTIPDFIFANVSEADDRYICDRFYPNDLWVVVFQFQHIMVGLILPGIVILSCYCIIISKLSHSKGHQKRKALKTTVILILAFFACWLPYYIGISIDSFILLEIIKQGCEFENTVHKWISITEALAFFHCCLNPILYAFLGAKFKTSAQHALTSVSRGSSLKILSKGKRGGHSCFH
# T10 sequence (P61073 whole entry): as the sequence (P61073 whole entry E343K) above, with K343E counted along it
compound,measurement,setting,value
NCCCCN(Cc1nc2ccccc2[nH]1)[C@H]1CCCc2cccnc21 [mavorixafor],Concentration that normalized the hyperactive ERK signaling,[1],200 nM
same,Concentration that normalized the hyperactive ERK signaling,[2],40 nM
same,Emax,CXCR4 S339C fs*4,77%
same,Emax,CXCR4 E343X,90%
same,Emax,CXCR4 S324V fs*20,58%
same,Emax,CXCR4 L329Q fs*13,51%
same,Emax,CXCR4 S319C fs*24,76%
same,Emax,CXCR4 V320E fs*23,65%
same,Emax,CXCR4 T318P fs*3,88%
same,Emax,WT CXCR4,84%
same,Emax,CXCR4 S341P fs*25,57%
same,Emax,CXCR4 S339F fs*6,59%
same,Emax,CXCR4 E343K,66%
same,Emax,CXCR4 S338X,89%
same,Emax,CXCR4 R334X,72%
same,Emax,CXCR4 G336X,82%
same,Efficacy of inhibition of CXCL12 binding to CXCR4,[3],100%
same,Effect on CXCL12-dependent ERK activation,[4],inhibited
same,Effect on CXCL12-dependent AKT activation,[5],inhibited
same,Emax,all CXCR4^WHIM variants,51 to 90%
same,Effect on CXCL12-stimulated ERK activation,[6],inhibited
